# Reference: ChEMBL document CHEMBL1201862, “PubChem BioAssay data set” (2004)
# Activity calls are given as the source filed them.
# How the values were obtained:
# Nonstructural protein 1 = Nonstructural protein 1 (Influenza A virus, UniProt Q194T2); assay type: functional, Influenza A virus (A/California/07/2009(H1N1))
# [1] = molecular target: T1, Short transient receptor potential channel 4 (Mus musculus, UniProt Q9QUQ5); experiment: block of DAMGO-driven TRPC4 calcium entry – cell-based, HEK293 TRPC4/mu-opioid, Fluo-4 calcium, dose response (AID 434942); assay type: functional;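 further: potency of inhibitors blocking the TRPC4 calcium response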
# T1 sequence (Q9QUQ5 whole entry): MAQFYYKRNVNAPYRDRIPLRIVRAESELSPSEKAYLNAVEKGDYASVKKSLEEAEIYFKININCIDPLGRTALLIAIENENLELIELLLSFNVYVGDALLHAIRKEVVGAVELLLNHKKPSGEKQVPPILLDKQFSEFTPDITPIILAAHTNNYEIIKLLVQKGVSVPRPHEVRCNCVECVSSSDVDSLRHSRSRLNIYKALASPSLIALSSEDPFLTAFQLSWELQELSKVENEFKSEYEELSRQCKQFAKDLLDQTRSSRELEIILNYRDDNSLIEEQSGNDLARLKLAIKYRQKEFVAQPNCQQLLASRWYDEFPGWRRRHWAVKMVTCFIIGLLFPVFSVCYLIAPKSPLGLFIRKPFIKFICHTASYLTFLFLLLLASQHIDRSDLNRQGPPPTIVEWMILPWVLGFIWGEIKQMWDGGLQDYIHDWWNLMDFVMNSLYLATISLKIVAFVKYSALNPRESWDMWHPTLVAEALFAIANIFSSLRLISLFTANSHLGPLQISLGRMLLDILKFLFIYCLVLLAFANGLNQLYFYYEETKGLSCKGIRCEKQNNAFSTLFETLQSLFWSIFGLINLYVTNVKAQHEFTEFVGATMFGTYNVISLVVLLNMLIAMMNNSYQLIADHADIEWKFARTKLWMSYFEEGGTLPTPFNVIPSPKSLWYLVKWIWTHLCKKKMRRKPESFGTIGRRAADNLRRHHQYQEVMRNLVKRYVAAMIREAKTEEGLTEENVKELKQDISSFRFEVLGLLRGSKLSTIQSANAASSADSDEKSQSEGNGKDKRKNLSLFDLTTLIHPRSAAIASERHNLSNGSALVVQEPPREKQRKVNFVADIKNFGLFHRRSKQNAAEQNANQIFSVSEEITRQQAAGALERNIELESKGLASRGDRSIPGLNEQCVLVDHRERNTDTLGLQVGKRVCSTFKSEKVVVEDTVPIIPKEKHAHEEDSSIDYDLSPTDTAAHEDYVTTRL
# [2] = molecular target: Glyceraldehyde-3-phosphate dehydrogenase (Homo sapiens, UniProt P04406)
# [3] = molecular target: T2, Carboxy-terminal domain RNA polymerase II polypeptide A small phosphatase 1 (Homo sapiens, UniProt Q9GZU7); experiment: CTDSP1 inhibitors, concentration-response, biochemical, absorbance readout, ultra-high-throughput screen actives (AID 540297); assay type: functional
# T2 sequence (Q9GZU7 whole entry): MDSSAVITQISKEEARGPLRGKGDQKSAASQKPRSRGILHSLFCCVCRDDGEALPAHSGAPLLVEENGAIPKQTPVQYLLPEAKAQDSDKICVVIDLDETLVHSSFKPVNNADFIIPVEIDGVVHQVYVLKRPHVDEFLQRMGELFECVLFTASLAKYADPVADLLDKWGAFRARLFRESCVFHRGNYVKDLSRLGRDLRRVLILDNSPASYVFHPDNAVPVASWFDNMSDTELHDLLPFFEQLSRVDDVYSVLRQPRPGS
# [4] = HEK-293T viability loss after treatment – luminescence, T-cell screen hits, cytotoxicity control for TCR NF-kB inhibitor project, dose response (AID 489026); assay type: functional, cell-based;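 further: cells exposed to compound about 14 hours before the viability readout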
# [5] = HEK-293T cell viability reduction – luminescence, B-cell screen hits, cytotoxicity control for BCR NF-kB inhibitor project, dose response (AID 489021); assay type: functional, cell-based;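 further: HEK-293T cells carrying an NF-kB luciferase reporter; cells exposed to compound for about 14 hours before viability readout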
# [6] = molecular target: T3, Long-chain-fatty-acid--AMP ligase FadD28 (Mycobacterium tuberculosis, UniProt P9WQ59); experiment: Fluorescence polarization aasay to screen for inhibitors that compete for the binding of FadD28 to a bisubstrate Measured in Biochemical System Using Plate Reader - 2147-01_Inhibitor_Dose_CherryPick_Activity.; assay type: functional, Mycobacterium tuberculosis H37Rv
# T3 sequence (P9WQ59 whole entry): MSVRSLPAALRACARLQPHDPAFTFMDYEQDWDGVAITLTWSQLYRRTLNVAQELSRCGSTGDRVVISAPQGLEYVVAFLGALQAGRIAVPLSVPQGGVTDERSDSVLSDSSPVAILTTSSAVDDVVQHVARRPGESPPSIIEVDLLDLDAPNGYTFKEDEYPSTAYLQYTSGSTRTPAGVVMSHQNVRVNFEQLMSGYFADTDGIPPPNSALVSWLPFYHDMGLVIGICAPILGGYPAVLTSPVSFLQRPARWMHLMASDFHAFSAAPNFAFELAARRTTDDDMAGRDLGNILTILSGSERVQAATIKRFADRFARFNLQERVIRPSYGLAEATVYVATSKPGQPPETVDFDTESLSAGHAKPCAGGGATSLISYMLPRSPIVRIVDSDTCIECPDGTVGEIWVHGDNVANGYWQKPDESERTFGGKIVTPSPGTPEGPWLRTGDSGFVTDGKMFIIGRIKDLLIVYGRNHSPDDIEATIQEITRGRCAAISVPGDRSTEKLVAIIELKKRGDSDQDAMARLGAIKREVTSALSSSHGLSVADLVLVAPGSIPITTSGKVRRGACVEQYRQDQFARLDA
# [7] = molecular target: Dual specificity tyrosine-phosphorylation-regulated kinase 1A (Rattus norvegicus, UniProt Q63470); assay type: biochemical, Homo sapiens
# [8] = molecular target: T4, Rac GTPase-activating protein 1 (Homo sapiens, UniProt Q9H0H5); experiment: blockers of MgcRacGAP-driven Rac1 GTP hydrolysis – biochemical, ADP Hunter fluorescence, primary and confirmatory, confirmation (AID 624330); assay type: functional
# T4 sequence (Q9H0H5 whole entry): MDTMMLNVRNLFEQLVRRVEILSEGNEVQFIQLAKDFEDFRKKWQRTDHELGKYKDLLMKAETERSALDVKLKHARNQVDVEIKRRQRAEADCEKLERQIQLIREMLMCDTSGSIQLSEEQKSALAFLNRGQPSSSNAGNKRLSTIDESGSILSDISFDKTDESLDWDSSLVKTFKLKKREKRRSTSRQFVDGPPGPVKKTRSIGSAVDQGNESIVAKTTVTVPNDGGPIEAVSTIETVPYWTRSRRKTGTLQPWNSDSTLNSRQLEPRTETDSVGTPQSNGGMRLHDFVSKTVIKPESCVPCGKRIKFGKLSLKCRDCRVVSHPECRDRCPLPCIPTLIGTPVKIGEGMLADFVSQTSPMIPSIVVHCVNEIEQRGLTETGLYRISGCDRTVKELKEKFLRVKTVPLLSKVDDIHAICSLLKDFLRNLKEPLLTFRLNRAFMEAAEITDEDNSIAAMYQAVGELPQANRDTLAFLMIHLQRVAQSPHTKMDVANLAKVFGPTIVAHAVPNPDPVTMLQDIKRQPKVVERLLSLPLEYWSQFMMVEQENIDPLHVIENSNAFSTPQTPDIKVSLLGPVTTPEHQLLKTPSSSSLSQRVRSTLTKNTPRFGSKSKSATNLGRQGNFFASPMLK
# [9] = loss of viability in HepG2 cells – cell-based, CellTiter-Glo, cherry-picked, cytotoxicity control for Shn3 inhibitor project, dose response (AID 624134); assay type: functional
# [10] = molecular target: T5, Corticotropin-releasing factor receptor 2/Corticotropin-releasing factor-binding protein (Homo sapiens, UniProt P24387+Q13324); experiment: activators of CRF receptor 2 with binding protein – uHTS hits, confirmation (AID 602473); assay type: functional; conditions: read-out: EC50_Mean
# T5 sequence (Q13324 whole entry): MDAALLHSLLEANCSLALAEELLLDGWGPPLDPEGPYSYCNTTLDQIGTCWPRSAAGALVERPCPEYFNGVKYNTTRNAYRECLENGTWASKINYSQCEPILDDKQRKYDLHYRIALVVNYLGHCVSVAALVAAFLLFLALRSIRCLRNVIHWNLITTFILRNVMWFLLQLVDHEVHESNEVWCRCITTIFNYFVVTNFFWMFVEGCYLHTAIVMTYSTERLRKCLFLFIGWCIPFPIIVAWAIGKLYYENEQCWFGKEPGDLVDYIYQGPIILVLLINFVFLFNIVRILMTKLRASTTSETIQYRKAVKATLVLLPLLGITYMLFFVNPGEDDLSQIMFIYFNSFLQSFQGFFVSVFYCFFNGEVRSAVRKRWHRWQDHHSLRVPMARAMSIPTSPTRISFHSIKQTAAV
# T5 sequence (P24387 whole entry): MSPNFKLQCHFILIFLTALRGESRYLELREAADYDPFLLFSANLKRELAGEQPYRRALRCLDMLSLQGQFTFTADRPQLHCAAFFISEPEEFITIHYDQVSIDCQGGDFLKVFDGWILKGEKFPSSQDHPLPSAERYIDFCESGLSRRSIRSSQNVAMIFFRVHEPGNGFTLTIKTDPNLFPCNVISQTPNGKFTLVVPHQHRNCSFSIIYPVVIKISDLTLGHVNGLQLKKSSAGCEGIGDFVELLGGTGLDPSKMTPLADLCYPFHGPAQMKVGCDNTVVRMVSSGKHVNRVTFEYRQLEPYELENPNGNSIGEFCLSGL
# Cytochrome P450 3A4 = Cytochrome P450 3A4 (Homo sapiens, UniProt P08684);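 further: CYP3A4 tested as one member of a cytochrome P450 panel screen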
# [11] = molecular target: Eukaryotic translation initiation factor 4E (Mus musculus, UniProt P63073); experiment: blockers of eIF4G binding by eIF4E – biochemical, TR-FRET, dose response (AID 855); assay type: functional;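 further: potency for disrupting eIF4E binding to eIF4GI seen as loss of FRET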
# INS1 = experiment: INS-1E survival protection against cytokine death – cell-based, luminescence, retest, dose response (AID 449756); assay type: functional; conditions: Rattus norvegicus;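 further: cell death triggered by IL-1 beta plus TNF-alpha plus IFN-gamma mixture; protective hits raise ATP signal compared with cytokine alone wells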
# [12] = molecular target: Heat shock protein HSP 90-alpha (Homo sapiens, UniProt P07900); assay type: functional, organism-based
# [13] = molecular target: T1, Short transient receptor potential channel 4; experiment: calcium entry via TRPC4 opening agents – cell-based, HEK293 TRPC4/mu-opioid, Fluo-4 calcium, dose response (AID 434937); assay type: functional
# [14] = Luminescence Cell-Based Dose Response HTS to Identify Inhibitors of 5'UTR Stem-Loop Driven Prion Protein mRNA Translation in H4 Neuroglioblastoma Cells. [Related pubchem assays: 1827 (Project Summary), 1813 (Primary HTS)]; assay type: functional
# [15] = luciferase reporter signal suppression in cells – H4 neuroglioma cells, luminescence, dose response (AID 1990); assay type: functional, cell-based
# [16] = alpha-synuclein stem-loop luciferase translation blockers – H4 neuroglioma cells, luminescence, confirmation (AID 1988); assay type: functional, cell-based
# Nonstructural protein 1, sequence (Q194T2 whole entry): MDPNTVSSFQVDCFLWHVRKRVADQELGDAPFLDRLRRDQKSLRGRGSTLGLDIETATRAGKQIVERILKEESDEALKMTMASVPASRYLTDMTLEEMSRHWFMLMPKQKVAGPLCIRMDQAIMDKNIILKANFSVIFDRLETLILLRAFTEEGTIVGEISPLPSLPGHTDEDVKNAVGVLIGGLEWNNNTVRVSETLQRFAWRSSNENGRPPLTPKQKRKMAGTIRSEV
# Glyceraldehyde-3-phosphate dehydrogenase, sequence (P04406 whole entry, the tested form may be a part): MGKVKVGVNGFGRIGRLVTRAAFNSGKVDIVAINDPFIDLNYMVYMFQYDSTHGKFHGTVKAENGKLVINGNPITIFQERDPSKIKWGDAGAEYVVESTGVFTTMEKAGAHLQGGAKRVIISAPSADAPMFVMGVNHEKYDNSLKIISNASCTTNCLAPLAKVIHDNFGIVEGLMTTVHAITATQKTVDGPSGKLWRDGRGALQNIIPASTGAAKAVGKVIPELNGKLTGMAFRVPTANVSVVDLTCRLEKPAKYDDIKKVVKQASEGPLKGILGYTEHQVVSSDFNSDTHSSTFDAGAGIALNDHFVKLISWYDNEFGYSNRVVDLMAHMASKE
# Cytochrome P450 3A4, sequence (P08684 whole entry): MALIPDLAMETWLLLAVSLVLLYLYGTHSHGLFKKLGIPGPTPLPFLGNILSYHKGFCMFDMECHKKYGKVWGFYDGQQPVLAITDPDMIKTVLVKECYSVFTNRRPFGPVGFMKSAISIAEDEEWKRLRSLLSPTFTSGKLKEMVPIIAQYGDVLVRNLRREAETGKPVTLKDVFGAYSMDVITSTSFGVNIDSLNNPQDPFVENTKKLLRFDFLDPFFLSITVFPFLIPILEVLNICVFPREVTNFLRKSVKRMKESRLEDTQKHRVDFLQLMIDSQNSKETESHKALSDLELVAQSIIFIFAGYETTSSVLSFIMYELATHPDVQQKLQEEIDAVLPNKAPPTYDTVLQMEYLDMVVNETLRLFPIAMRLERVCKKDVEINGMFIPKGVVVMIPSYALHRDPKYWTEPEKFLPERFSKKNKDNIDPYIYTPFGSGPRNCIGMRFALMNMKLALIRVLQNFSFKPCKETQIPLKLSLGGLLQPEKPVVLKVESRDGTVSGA
# Eukaryotic translation initiation factor 4E, sequence (P63073 whole entry): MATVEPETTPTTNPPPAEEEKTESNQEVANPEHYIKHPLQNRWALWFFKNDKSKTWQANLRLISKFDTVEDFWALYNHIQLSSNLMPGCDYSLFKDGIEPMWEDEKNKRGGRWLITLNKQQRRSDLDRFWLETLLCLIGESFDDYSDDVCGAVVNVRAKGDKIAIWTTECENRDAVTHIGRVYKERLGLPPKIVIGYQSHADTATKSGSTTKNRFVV
structure (smiles),measurement,setting,value
CN1CCN(c2cc(N3CCN(C(=O)c4ccco4)CC3)c3c4c(onc24)-c2ccccc2C3=O)CC1,IC50,Nonstructural protein 1,15.3 µM (active)
COc1ccc(Nc2nc(N)c3ccccc3n2)c(OC)c1,EC50,[1],4.22 µM (active)
O=C1C2C3C=CC(C3)C2C(=O)N1c1n[nH]c(CCc2ccccc2)n1 (centres undefined),IC50,[2],> 100 µM (not active)
CCOC(=O)CN1C(=O)S/C(=C\c2ccc(-c3ccc(C(=O)O)c(Cl)c3)o2)C1=O,IC50,[3],4.84 µM (active)
CCCC(=O)Nc1nc2ccc(S(=O)(=O)N3CCCCC3)cc2s1,IC50,[4],> 80 µM (inactive)
NNC(=O)COc1ccc(-c2nccc(-c3ccc(F)cc3)n2)cc1,IC50,[5],> 80 µM (inactive)
Cc1cccc(NC(=O)CN2C(=O)S/C(=C\c3cccn3-c3cccc(C(=O)O)c3)C2=O)c1,IC50,[3],6.83 µM (active)
same,AC50,[6],0.519 µM (active)
COc1ccc(Nc2c3c(nc4ccccc24)CCC3)cc1,EC50,[1],4.22 µM (active)
COc1cc(/C=C2\SC(=S)N(NC(=O)c3cccc(O)c3)C2=O)ccc1O,AC50,[7],6.23 µM (active)
same,AC50,[6],32 µM (inactive)
same,IC50,[8],54.8 µM (active)
CCOc1ccc(Br)cc1C1=CC(=O)C[C@H](c2ccc(OC)cc2)C1,AC50,[9],> 70 µM (inactive)
same,EC50,[10],> 53 µM (inactive)
same,IC50,[4],> 80 µM (inactive)
Cc1c(OC(=O)c2ccc([N+](=O)[O-])cc2)c2c(c[n+]1C)COC(C)(C)OC2,AC50,Cytochrome P450 3A4,7.08 µM (inconclusive)
same,IC50,[11],> 64 µM (inactive)
same,IC50,[3],4.14 µM (active)
CSCC[C@H](NS(=O)(=O)c1ccc(C(C)=O)cc1)c1nnc2ccccn12,IC50,[3],5.88 µM (active)
CC(C)CN(CC(C)C)c1nc(N)c(C#N)c(CC#N)c1C#N,EC50,[1],5.96 µM (active)
Cc1cc(N(C)C)ccc1N=Nc1ccc2ncccc2c1,IC50,Nonstructural protein 1,9.43 µM (active)
Cc1c(C)c2cccnc2c2ncccc12,AC50,INS1,1.57 µM (active)
same,AC50,[12],3.99 µM (active)
same,IC50,[4],> 80 µM (inactive)
COc1ccc(/C=C2\SC(=O)NC2=S)cc1OC,AC50,[7],9.55 µM (active)
C=CCOC(=O)COc1cc(C)cc2oc(=O)c3c(c12)CCC3,IC50,[5],> 80 µM (inactive)
O=C1C(Cl)=C(N2CCOCC2)C(=O)N1c1ccnc(Cl)c1,IC50,[2],> 50 µM (inconclusive)
CCn1cc(CN2CCC(n3nccc3NC(=O)CCCc3ccccc3)CC2)cn1,EC50,[13],1.33 µM (active)
same,EC50,[1],1.19 µM (active)
COc1ccc(/C=N/NC(=O)COc2ccccc2-c2ccccc2)cc1,EC50,[14],0.483 µM (active)
same,EC50,[15],8.05 µM (active)
same,EC50,[16],0.166 µM (active)
same,IC50,[4],> 80 µM (inactive)
CCCc1noc2c1/C(=N\O)CC(CC(C)SCC)C2 (centres undefined),EC50,[1],1.5 µM (active)
